In PubChem BioAssay (NCI) one finds TGI and GI50 data, which are given here for nine molecules.

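Compound exposure: 48 hours, 5 concentrations, 96-well plates. GI50 marks 50% less growth. TGI is the concentration that stops growth completely.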

Among the test systems are RPMI-8226 leukemia; IGROV1 ovarian; LOX IMVI melanoma; BT-549 breast; DU-145 prostate; SNB-75 CNS; SF-295 CNS; A549 NSCLC; PC-3 prostate; HT29 colon.
What all share (assay): NCI tumour cell line growth inhibition, 48 h

`O=C(Nc1ccc(Nc2ccc3c(c2)C(=O)c2ccccc2C3=O)c2c1C(=O)c1ccccc1C2=O)c1ccccc1`: the TGI in the test on RPMI-8226 leukemia was > 100 µM; in the test with IGROV1 ovarian, > 100 µM; in the test with LOX IMVI melanoma it was > 100 µM; in the test on BT-549 breast it was > 100 µM; with DU-145 prostate it was > 100 µM; with SNB-75 CNS it was 58.1 µM. For the same molecule, the TGI in the test on SF-295 CNS, in the test on A549 NSCLC, in the test with PC-3 prostate and in the test on HT29 colon was > 100 µM each time.
Consider `Clc1ccc2c(NC3CCC(NC4CCCCC4)CC3)ccnc2c1` (stereo not given), for which the GI50 in the test on RPMI-8226 leukemia is 2260 nM; with IGROV1 ovarian, 6.64 µM; in the test on LOX IMVI melanoma it was 1750 nM; with BT-549 breast, 12300 nM; in the test with DU-145 prostate, 13.3 µM; in the test on SNB-75 CNS, 4.63 µM. Further, the GI50 with SF-295 CNS was 1.92 µM; in the test on A549 NSCLC, 4.84 µM; in the test with PC-3 prostate, 11.2 µM; with HT29 colon, 1570 nM. Besides, the TGI in the test with RPMI-8226 leukemia is 14.5 µM; in the test with IGROV1 ovarian it was 30.8 µM; in the test with LOX IMVI melanoma it was 4.29 µM; in the test on BT-549 breast, 25.1 µM; in the test on DU-145 prostate it was 33.6 µM; in the test on SNB-75 CNS, 19.4 µM. Also, the TGI with SF-295 CNS was found to be 5.19 µM; with A549 NSCLC, 17.3 µM; with PC-3 prostate it was 43.2 µM; in the test with HT29 colon, 7.88 µM.
As for `COc1cccc(C2CC(C)(O)Oc3cc4c(cc32)OCO4)c1` (stereo not given), the TGI in the test with RPMI-8226 leukemia is 66.2 µM; in the test on IGROV1 ovarian, > 100 µM; with LOX IMVI melanoma, > 100 µM; with BT-549 breast, > 100 µM; in the test with DU-145 prostate, > 100 µM; in the test with SNB-75 CNS, 61.7 µM. The TGI in the test with SF-295 CNS is 95.7 µM; in the test with A549 NSCLC it was > 100 µM; in the test with PC-3 prostate, > 100 µM; in the test on HT29 colon, 28.8 µM.
For the molecule `C=CCn1c(SCC(=O)Nc2ccc(C(=O)/C=C/c3cc(OC)c(OC)c(OC)c3)cc2)nnc1-c1cc(OC)c(OC)c(OC)c1`, the GI50 is 1510 nM in the test with RPMI-8226 leukemia; 3.42 µM in the test on IGROV1 ovarian; 2300 nM in the test on LOX IMVI melanoma; 2140 nM with BT-549 breast; 6.09 µM in the test with DU-145 prostate; 2.71 µM with SNB-75 CNS. The GI50 with SF-295 CNS was 5.25 µM; with A549 NSCLC, 6.46 µM; in the test with PC-3 prostate, 4.29 µM; in the test on HT29 colon it was 2660 nM. Also, the TGI in the test with RPMI-8226 leukemia is 4.91 µM; with IGROV1 ovarian, 18.4 µM; in the test on LOX IMVI melanoma, 6.53 µM; in the test with BT-549 breast, 6.25 µM; in the test on DU-145 prostate, > 100 µM; in the test with SNB-75 CNS it was 27.6 µM. Moreover, the TGI is > 100 µM in the test on SF-295 CNS, 36.5 µM with A549 NSCLC, 22.6 µM in the test with PC-3 prostate and 6.14 µM with HT29 colon.
Consider `O=C(O)C1CCCN1` (stereo not given), for which the TGI in the test with RPMI-8226 leukemia, in the test on IGROV1 ovarian, in the test on LOX IMVI melanoma, with BT-549 breast, with DU-145 prostate and in the test with SNB-75 CNS was > 100 µM throughout. The TGI with SF-295 CNS, in the test with A549 NSCLC, with PC-3 prostate and with HT29 colon was > 100 µM each time.
As for `CCn1c(-c2nonc2N)nc2cnc(Oc3cccc(NC(=O)c4ccc(OCCN5CCOCC5)cc4)c3)cc21`, the GI50 with RPMI-8226 leukemia is 4280 nM; with IGROV1 ovarian it was 2.98 µM; with LOX IMVI melanoma, 3100 nM; in the test on BT-549 breast it was 438 nM; in the test with DU-145 prostate, 5.43 µM; in the test on SNB-75 CNS, 0.0594 µM. In addition, the GI50 was 0.974 µM with SF-295 CNS, 2.52 µM in the test with A549 NSCLC, 2.88 µM in the test with PC-3 prostate and 10700 nM with HT29 colon. Besides, the TGI with RPMI-8226 leukemia was > 25 µM; in the test with IGROV1 ovarian it was > 20.3 µM; with LOX IMVI melanoma, > 25 µM; in the test on BT-549 breast, 15.3 µM; in the test with DU-145 prostate, > 25 µM; with SNB-75 CNS it was 7.65 µM. For the same molecule, the TGI is > 16.9 µM in the test with SF-295 CNS, > 25 µM in the test on A549 NSCLC, > 25 µM in the test with PC-3 prostate and > 25 µM in the test with HT29 colon.
In the case of `N#CSc1c[nH]c2ccc(/C=C/C(=O)/C=C(O)/C=C/c3ccc4[nH]cc(SC#N)c4c3)cc12`, the GI50 in the test with RPMI-8226 leukemia is 1560 nM; with IGROV1 ovarian, 1.19 µM; in the test on LOX IMVI melanoma, 483 nM; in the test with BT-549 breast it was 1520 nM; in the test on DU-145 prostate, 1.92 µM; in the test on SNB-75 CNS, 3.1 µM. Further, the GI50 with SF-295 CNS was 3.03 µM; in the test on A549 NSCLC, 3.25 µM; in the test on PC-3 prostate it was 0.343 µM; in the test with HT29 colon it was 1420 nM. The TGI with RPMI-8226 leukemia is 5.98 µM; in the test with IGROV1 ovarian, 8.41 µM; in the test on LOX IMVI melanoma it was 1.83 µM; in the test on BT-549 breast, 8.04 µM; in the test with DU-145 prostate it was 4.56 µM; with SNB-75 CNS, 21.4 µM. The TGI in the test with SF-295 CNS was 13.3 µM; in the test on A549 NSCLC, 14.7 µM; with PC-3 prostate it was 2.03 µM; in the test with HT29 colon, 3.84 µM.
In the case of `C=C1C(=O)O[C@@H]2C[C@@]3(C)CCC[C@H](C)C3=C[C@H]12` (tested in a mixture with another compound), the TGI amounted to 4.05 µM with RPMI-8226 leukemia; 7.71 µM in the test with IGROV1 ovarian; 11.7 µM in the test with LOX IMVI melanoma; 3.31 µM in the test with BT-549 breast; 8.67 µM in the test on DU-145 prostate; 5.6 µM in the test with SNB-75 CNS. For the same molecule, the TGI amounted to 24.6 µM with SF-295 CNS, 18.6 µM with A549 NSCLC, 10 µM in the test with PC-3 prostate and 5.34 µM in the test on HT29 colon.
Turning to `CCN(Cc1ccccc1)c1ccc(/C=C2\COc3ccccc3C2=O)cc1`, the GI50 was 146000 nM with RPMI-8226 leukemia; > 1000 µM in the test with IGROV1 ovarian; 243000 nM in the test on LOX IMVI melanoma; 340000 nM with BT-549 breast; > 1000 µM in the test on DU-145 prostate; > 1000 µM in the test on SNB-75 CNS. Also, the GI50 in the test with SF-295 CNS was > 1000 µM; with A549 NSCLC, > 1000 µM; with PC-3 prostate, 343 µM; in the test with HT29 colon it was 135000 nM. For the same molecule, the TGI with RPMI-8226 leukemia, in the test on IGROV1 ovarian, in the test with LOX IMVI melanoma, in the test with BT-549 breast, with DU-145 prostate and in the test with SNB-75 CNS was > 1000 µM in each case. The TGI in the test on SF-295 CNS, with A549 NSCLC, in the test with PC-3 prostate and in the test on HT29 colon was > 1000 µM in each case.
